Results published in patent publication US20260091050A1, “ADVANTAGEOUS ANTI-HCV COMBINATION THERAPY” (Atea Pharmaceuticals, Inc., priority 2021, published 2026).

What was measured:
HCV = assay: Emax model: HCV RNA reduction on day 7 against AUC of metabolite 1-7; type: in vivo, human; conditions: after 7 days QD dosing, metabolite 1-7 exposures ≥2000 ng/mL×h
[1] = Plasma levels of Compound 1 and metabolites after single oral dose of Compound 1-A, monkey; type: in vivo; conditions: for Compound 1 Tmax: Monkey, plasma
[2] = Ambient stability (25 ± 2° C./60 ± 5% RH) of Compound 1-A over 9 months; type: physicochemical
Experimental: Three conditions were tested: accelerated stability (40±2° C./[…]) over a 6-month time period, ambient stability (25±2° C./[…]) over a 9-month period, and stability under refrigerator conditions (5±3° C.) over a 9-month time period. The results for accelerated stability, ambient stability, and refrigerator conditions are shown in Table 23, Table 24, and Table 25, respectively.

[3] = Heart and liver tissue levels of active triphosphate 4 hours after oral Compound 1-A, rat; type: in vivo; conditions: 4 hours after single oral dose
Experimental: High levels of the active TP were measured in the liver of all species tested.

[4] = 25 ± 2° C./60 ± 5% RH, 1st month
[5] = 25 ± 2° C./60 ± 5% RH, 3rd month
[6] = 25 ± 2° C./60 ± 5% RH, 6th month
[7] = 25 ± 2° C./60 ± 5% RH, 9th month

Question: For CNc1nc(N)nc2c1ncn2[C@@H]1O[C@H](CO[P@@](=O)(N[C@@H](C)C(=O)OC(C)C)Oc2ccccc2)[C@@H](O)[C@@]1(C)F [Compound 1-A, isopropyl ((S)-(((2R,3R,4R,5R)-5-(2-amino-6-(methylamino)-9H-purin-9-yl)-4-fluoro-3-hydroxy-4-methyltetrahydrofuran-2-yl)methoxy) (phenoxy)phosphoryl)-L-alaninate hemisulfate], which “predicted maximal viral load reduction” value (HCV) is on record?
Answer: at least 4 log units

Question: What about the “Compound 1 Tmax” value ([1]; 30 mg/kg single oral dose) of the same compound?
Answer: 30 to 120 min

Question: What about the “Compound 1 Tmax” value ([1]; 100 mg/kg single oral dose) of the same compound?
Answer: 60 to 120 min

Question: And the “vomiting (animals affected)” value ([1]; monkeys, high dose group)?
Answer: ⅕

Question: What about the Appearance ([2]; 25 ± 2° C./60 ± 5% RH, 0 month) of the same compound?
Answer: White

Question: What about the Assay ([2]; 25 ± 2° C./60 ± 5% RH, 0 month) of the same compound?
Answer: 98.8%

Question: And the IR ([2]; 25 ± 2° C./60 ± 5% RH, 0 month)?
Answer: correspond

Question: And the “Related Substance 1 Any other single impurity” value ([2]; 25 ± 2° C./60 ± 5% RH, 0 month)?
Answer: 0.01%

Question: What about the “Related Substance 1 Total Impurities” value ([2]; 25 ± 2° C./60 ± 5% RH, 0 month) of the same compound?
Answer: 0.01%

Question: And the Water ([2]; 25 ± 2° C./60 ± 5% RH, 0 month)?
Answer: 0.45%

Question: And the Appearance [2, 4]?
Answer: White

Question: And the Assay [2, 4]?
Answer: 101.1%

Question: What about the “Related Substance 1 Any other single impurity” value [2, 4] of the same compound?
Answer: 0.01%

Question: What about the “Related Substance 1 Total Impurities” value [2, 4] of the same compound?
Answer: 0.02%

Question: What about the Water [2, 4] of the same compound?
Answer: 0.19%

Question: And the Appearance [2, 5]?
Answer: White

Question: What about the Assay [2, 5] of the same compound?
Answer: 99.6%

Question: And the IR [2, 5]?
Answer: correspond

Question: What about the “Related Substance 1 Any other single impurity” value [2, 5] of the same compound?
Answer: 0.03%

Question: And the “Related Substance 1 Impurity B” value [2, 5]?
Answer: 0.03%

Question: What about the “Related Substance 1 Impurity F” value [2, 5] of the same compound?
Answer: 0.02%

Question: What about the “Related Substance 1 Total Impurities” value [2, 5] of the same compound?
Answer: 0.11%

Question: What about the Water [2, 5] of the same compound?
Answer: 0.29%

Question: And the Appearance [2, 6]?
Answer: White solid

Question: And the Assay [2, 6]?
Answer: 99.7%

Question: And the IR [2, 6]?
Answer: correspond

Question: And the “Related Substance 1 Any other single impurity” value [2, 6]?
Answer: 0.02%

Question: What about the “Related Substance 1 Impurity F” value [2, 6] of the same compound?
Answer: 0.01%

Question: What about the “Related Substance 1 Total Impurities” value [2, 6] of the same compound?
Answer: 0.05%

Question: And the Water [2, 6]?
Answer: 0.46%

Question: And the Appearance [2, 7]?
Answer: Off-white

Question: And the Assay [2, 7]?
Answer: 100.9%

Question: What about the IR [2, 7] of the same compound?
Answer: correspond

Question: What about the “Related Substance 1 Any other single impurity” value [2, 7] of the same compound?
Answer: 0.02%

Question: And the “Related Substance 1 Total Impurities” value [2, 7]?
Answer: 0.02%

Question: And the Water [2, 7]?
Answer: 0.20%

Question: And the percentage of water ([2]; after 9 months)?
Answer: 0.2000

Question: What about the “total related substance 1 impurities” value ([2]; after 9 months) of the same compound?
Answer: 0.02%

Question: What about the “active TP (metabolite 1-6) level in heart” value [3] of the same compound?
Answer: unquantifiable levels

Question: What about the “active TP (metabolite 1-6) level in liver” value [3] of the same compound?
Answer: High levels
